Experimental data reported in patent publication US6444617B1, “Fused-heterocycle dicarboxylic acid diamide derivatives or salts thereof, herbicide and usage thereof” (Nihon Nohyaku Co., Ltd., priority 1998, dated 2002).

What was measured:
Format in all cases: in vivo
[1] = test system: barnyard grass (Echinochloa crus-galli Beauv.); test: Test Example 1: herbicidal effect on paddy field weeds before emergence; details: Dosage 5 kg/ha
Experimental: (§1) Test for Herbicidal Effect on Paddy Field Weeds Before Emergence Soil was filled into 1/10000 are pots and brought into a state of paddy field, in which seeds of barnyard grass (Echinochloa crus-galli Beauv.) and bulrush (Scirpus juncoides Roxb.) were made to be before germination. The soil in the pots were treated with a solution containing a predetermined dosage of a chemical agent comprising a compound of the present invention listed in Tables 1 to 14. Twenty one days after the treatment, the herbicidal effect was investigated, the result was compared with that in untreated plot to calculate the weed-controlling rate, and the herbicidal effect was judged according to the following criterion: […]

[2] = test system: bulrush (Scirpus juncoides Roxb.); test: as above; details: Dosage 5 kg/ha
Experimental: as §1

[3] = test system: barnyard grass (Echinochloa crus-galli Beauv.); test: Test Example 2: herbicidal effect on paddy field weeds after emergence; details: Dosage 5 kg/ha; one-leaved stage; 21 days after treatment
Experimental: (§2) Test for Herbicidal Effect on Paddy Field Weeds After Emergence. Soil was filled into 1/10000 are pots and brought into a state of paddy field, in which seeds of barnyard grass (Echinochloa crus-galli Beauv.), bulrush (Scirpus juncoides Roxb.) and monochoria (Monochoria vaginalis Presl) were made to reach one-leaved stage. The soil in the pots were treated with a solution containing a predetermined dosage of a chemical agent comprising a compound of the present invention listed in Tables 1 to 14. Twenty one days after the treatment, the herbicidal effect was investigated and the result was compared with that in untreated plot to calculate the weed-controlling rate, and the herbicidal effect was judged according to the same criterion as in Test Example 1.

[4] = test system: bulrush (Scirpus juncoides Roxb.); test: as above; details: Dosage 5 kg/ha; one-leaved stage; 21 days after treatment
Experimental: as §2

[5] = test system: monochoria (Monochoria vaginalis Presl); test: as above; details: Dosage 5 kg/ha; one-leaved stage; 21 days after treatment
Experimental: as §2

[6] = test system: barnyard grass (Echinochloa crus-galli Beauv.), Ec; test: Test Example 3: herbicidal effect on upland weeds before emergence; details: dosage 5 kg/ha
Experimental: (§3) Herbicidal Effect on Upland Weeds Before Emergence […] Then, a liquid preparation of an agent comprising a prescribed concentration of a compound of the present invention (the compounds listed in Tables 1-14) as active ingredient was sprayed. Fourteen days after the treatment, the herbicidal effect was investigated, from which weed-killing rate was calculated in the same manner as in Test Example 1, and the herbicidal effect was judged.

[7] = test system: bird's eye speedwell (Veronica persica Poir.), Vp; test: as above; details: dosage 5 kg/ha
Experimental: as §3

[8] = test system: cleavers (Galium aparine L.), Ga; test: as above; details: dosage 5 kg/ha
Experimental: as §3

[9] = test system: cocklebur (Xanthium strumarium L.), Xs; test: as above; details: dosage 5 kg/ha
Experimental: as §3

[10] = test system: forxtail grass (Alopecurus aequalis var. amurensis Ohwi), Am; test: as above; details: foxtail grass, dosage 5 kg/ha
Experimental: as §3

[11] = test system: velvetleaf (Abutilon theophtasti L.), At; test: as above; details: dosage 5 kg/ha
Experimental: as §3

soybean plant (So) = test: Test Example 3: phytotoxicity to upland crop plants, treatment before emergence; details: dosage 5 kg/ha
Experimental: as §3, with “judged. At the same time, phytotoxicity to soybean plant and wheat was investigated and judged according to the criterion mentioned below.” for “judged.”

wheat (Wh) = test: as above; details: dosage 5 kg/ha
Experimental: as §3, with “judged. At the same time, phytotoxicity to soybean plant and wheat was investigated and judged according to the criterion mentioned below.” for “judged.”

[12] = test system: barnyard grass (Echinochloa crus-galli Beauv.), Ec; test: Test Example 4: herbicidal effect on upland weeds after emergence; details: dosage 5 kg/ha; sprayed after emergence; judged 14 days after treatment
Description: (§4) Herbicidal Effect on Upland Weeds After Emergence Polyethylene-made vats having a size of 10 cm (length)×20 cm (width)×5 cm (height) were filled with soil, sown with seeds of the following noxious upland weeds and with seeds of soybean plant and wheat as upland crop plants, and then covered with soil. The plants were made to grow up until they reached the leaf-stages mentioned below, after which an agent comprising a prescribed concentration of a compound of the present invention (listed in Tables 1 to 14) as active ingredient was sprayed. Fourteen days after the treatment, the herbicidal effect was investigated, from which weed-killing rate was calculated in the same manner as in Test Example 1 and the results were judged. […] Sample weeds, their leaf stages, and leaf stages of soybean plant and wheat were as follows: [table]

[13] = test system: bird's eye speedwell (Veronica persica Poir.), Vp; test: as above; details: dosage 5 kg/ha; sprayed after emergence; judged 14 days after treatment
Description: as §4

[14] = test system: cleavers (Galium aparine L.), Ga; test: as above; details: dosage 5 kg/ha; sprayed after emergence; judged 14 days after treatment
Description: as §4

[15] = test system: cocklebur (Xanthium strumarium L.), Xs; test: as above; details: dosage 5 kg/ha; sprayed after emergence; judged 14 days after treatment
Description: as §4

[16] = test system: forxtail grass (Alopecurus aequalis var. amurensis Ohwi), Am; test: as above; details: dosage 5 kg/ha; sprayed after emergence; judged 14 days after treatment
Description: as §4

[17] = test system: velvetleaf (Abutilon theophtasti L.), At; test: as above; details: dosage 5 kg/ha; sprayed after emergence; judged 14 days after treatment
Description: as §4

soybean plant = test: Test Example 4: phytotoxicity to upland crop plants, treatment after emergence; details: dosage 5 kg/ha, sprayed after emergence, judged 14 days after treatment
Description: as §4

wheat = test: as above; details: dosage 5 kg/ha, sprayed after emergence, judged 14 days after treatment
Description: as §4

Compound | Pre-emergence treatment Barnyard grass (herbicidal effect) [1] | Pre-emergence treatment Bulrush (herbicidal effect) [2] | Post-emergence treatment Barnyard grass (herbicidal effect) [3] | Post-emergence treatment Bulrush (herbicidal effect) [4] | Post-emergence treatment Monochoria (herbicidal effect) [5] | Herbicidal effect Ec [6] | Herbicidal effect Vp [7] | Herbicidal effect Ga [8] | Herbicidal effect Xs [9] | Herbicidal effect Am [10] | Herbicidal effect At [11] | Phytotoxicity So (soybean plant (So)) | Phytotoxicity Wh (wheat (Wh)) | Herbicidal effect Ec [12] | Herbicidal effect Vp [13] | Herbicidal effect Ga [14] | Herbicidal effect Xs [15] | Herbicidal effect Am [16] | Herbicidal effect At [17] | Phytotoxicity So (soybean plant) | also measured
CCCNC(=O)c1nc2c(cc1C(=O)Nc1cccc(Cl)c1C)COCC2 [compound 474] | 5 (Weed-killing rate is 100%.) | 5 (Weed-killing rate is 100%.) | 5 (Weed-killing rate is 100%.) | 5 (Weed-killing rate is 100%.) | 5 (Weed-killing rate is 100%.) | 5 (Weed-killing rate is 100%.) | 5 (Weed-killing rate is 100%.) | 4 (Weed-killing rate is 90-99%.) | 4 (Weed-killing rate is 90-99%.) | 5 (Weed-killing rate is 100%.) | 5 (Weed-killing rate is 100%.) | 3 (Crop-killing rate is 70-89%.) | 4 (Crop-killing rate is 90-99%.) | 5 (Weed-killing rate is 100%.) | 5 (Weed-killing rate is 100%.) | 4 (Weed-killing rate is 90-99%.) | 4 (Weed-killing rate is 90-99%.) | 5 (Weed-killing rate is 100%.) | 5 (Weed-killing rate is 100%.) | 3 (Crop-killing rate is 70-89%.) | Phytotoxicity Wh (wheat): 3 (Crop-killing rate is 70-89%.)
CCCNC(=O)c1nc2c(cc1C(=O)Nc1c(CC)ccc(Cl)c1CC)nc(C)n2C [compound 1294] | 5 (Weed-killing rate is 100%.) | 5 (Weed-killing rate is 100%.) | 5 (Weed-killing rate is 100%.) | 5 (Weed-killing rate is 100%.) | 5 (Weed-killing rate is 100%.) | 5 (Weed-killing rate is 100%.) | 5 (Weed-killing rate is 100%.) | 5 (Weed-killing rate is 100%.) | 5 (Weed-killing rate is 100%.) | 5 (Weed-killing rate is 100%.) | 5 (Weed-killing rate is 100%.) | 4 (Crop-killing rate is 90-99%.) | 5 (Crop-killing rate is 100%.) | 5 (Weed-killing rate is 100%.) | 5 (Weed-killing rate is 100%.) | 5 (Weed-killing rate is 100%.) | 5 (Weed-killing rate is 100%.) | 5 (Weed-killing rate is 100%.) | 5 (Weed-killing rate is 100%.) | 4 (Crop-killing rate is 90-99%.) | Phytotoxicity Wh (wheat): 5 (Crop-killing rate is 100%.)
Cc1c(Cl)cccc1NC(=O)c1cc2c(nc1C(=O)NCC(C)C)OCCC2 [compound 431] | 5 (Weed-killing rate is 100%.) | 5 (Weed-killing rate is 100%.) | 5 (Weed-killing rate is 100%.) | 5 (Weed-killing rate is 100%.) | 5 (Weed-killing rate is 100%.) | 5 (Weed-killing rate is 100%.) | 5 (Weed-killing rate is 100%.) | 4 (Weed-killing rate is 90-99%.) | 4 (Weed-killing rate is 90-99%.) | 4 (Weed-killing rate is 90-99%.) | 5 (Weed-killing rate is 100%.) | 3 (Crop-killing rate is 70-89%.) | 3 (Crop-killing rate is 70-89%.) | 4 (Weed-killing rate is 90-99%.) | 5 (Weed-killing rate is 100%.) | 4 (Weed-killing rate is 90-99%.) | 4 (Weed-killing rate is 90-99%.) | 4 (Weed-killing rate is 90-99%.) | 5 (Weed-killing rate is 100%.) | 3 (Crop-killing rate is 70-89%.) | Phytotoxicity Wh (wheat): 4 (Crop-killing rate is 90-99%.)
